Measurements from article PMC5472631 (2017).

How the values were obtained:
[1] = test system: Pu24T (c-myc G-quadruplex DNA) (DNA, G4) TGAGGGTGGTGAGGGTGGGGAAGG; experiment: ligand fluorescence titration; details: 100 mM KCl, 10 mM potassium phosphate; pH 7.0, 25 °C; site 1 of 2
[2] = test system: Pu24T (c-myc G-quadruplex DNA) (DNA, G4) TGAGGGTGGTGAGGGTGGGGAAGG; experiment: ITC; details: 100 mM KCl, 10 mM potassium phosphate; pH 7.0, 25 °C; site 1 of 2
[3] = test system: Pu24T (c-myc G-quadruplex DNA) (DNA, G4) TGAGGGTGGTGAGGGTGGGGAAGG; experiment: NMR solution structure (NOESY, restrained MD); details: 298 K; D/N = 2.0; stacks at 5' and 3' G-tetrads
[4] = test system: Pu24T (c-myc G-quadruplex DNA) (DNA, G4) TGAGGGTGGTGAGGGTGGGGAAGG; experiment: UV melting at 295 nm; details: 100 mM KCl, 10 mM potassium phosphate; pH 7.0; D/N = 2.0; Tm 70.0 to 80.0 °C
[5] = test system: Tel7, d-(T2AG3T)4 (DNA, G4) TTAGGGT; experiment: ligand fluorescence titration; details: 70 mM Na+; 25 °C
[6] = test system: c-kit21up (c-kit G-quadruplex DNA) (DNA, G4) CGGGCGGGCGCGAGGGAGGGG; experiment: ligand fluorescence titration; details: 100 mM KCl, 10 mM potassium phosphate; pH 7.0, 25 °C

With `O=c1c(-c2ccc(O)cc2)coc2c([C@@H]3O[C@H](CO)[C@@H](O)[C@H](O)[C@H]3O)c(O)ccc12` the Kd1 [1] was 88.8 µM and the K1 [2] was 1.10×10^4 ± 7.75 M^-1.
`O=c1c(-c2ccc(O)cc2)coc2cc(O)ccc12` was tested, and the Kd1 [1] was 47 µM and the K1 [2] was 3.34×10^5 ± 1.50 M^-1.
In the case of `O=c1c(O)c(-c2cc(O)c(O)c(O)c2)oc2cc(O)cc(O)c12`, the Kd1 [1] is reported as 1.4 µM and the K1 [2] is reported as 1.65×10^5 ± 0 M^-1.
In the case of `O=c1cc(-c2ccc(O)c(O)c2)oc2cc(O)cc(O)c12`, the Kd1 [1] is reported as 1.5 µM.
With `COc1ccc([C@@H]2CC(=O)c3c(O)cc(O[C@@H]4O[C@H](CO[C@@H]5O[C@@H](C)[C@H](O)[C@@H](O)[C@H]5O)[C@@H](O)[C@H](O)[C@H]4O)cc3O2)cc1O` the Kd1 [1] was 1 µM and the K1 [2] was 7.35×10^5 ± 1.06 M^-1.
In the case of `C[C@@H]1O[C@@H](OC[C@H]2O[C@@H](Oc3c(-c4ccc(O)c(O)c4)oc4cc(O)cc(O)c4c3=O)[C@H](O)[C@@H](O)[C@@H]2O)[C@H](O)[C@H](O)[C@H]1O`, the Kd1 [1] is reported as 17.1 µM and the K1 [2] is reported as 7.23 × 10^5 ± 8.60 M-1.
`O=c1c(O)c(-c2ccc(O)cc2)oc2cc(O)cc(O)c12` showed a Kd1 [1] of 1.3 µM.
In the case of `O=c1c(O)c(-c2ccc(O)c(O)c2)oc2cc(O)cc(O)c12`, the binding [3] is reported as “yes”, the ΔTm [4] is reported as 10 °C and the K1 [2] is reported as 1.57 × 10^7 ± 2.14 M-1. It also gave a Kd1 [5] of 2.13 µM and a Kd1 [6] of 1.12 µM.
